Reference: ChEMBL document CHEMBL1126429, “MDL 74147, a novel selective and soluble inhibitor of human renin. Synthesis, structure-activity relationship, species and protease selectivities” (Bioorg Med Chem Lett, 1992)
Where a SMILES comes first, the peptide text is derived from it. [ ]: non-standard residue; d: D form. The star is where a group is joined. Cha = N[C@@H](CC1CCCCC1)C(=O)O; Boc = CC(C)(C)OC(=O)*; CF3 = FC(F)(F)*

Assays:
[1] = target: T1, Renin (Homo sapiens, UniProt P00797); experiment: Concentration required to inhibit human plasma renin by 50% using radio-immunoassay was determined; assay type: cell-free
T1 sequence (P00797 whole entry): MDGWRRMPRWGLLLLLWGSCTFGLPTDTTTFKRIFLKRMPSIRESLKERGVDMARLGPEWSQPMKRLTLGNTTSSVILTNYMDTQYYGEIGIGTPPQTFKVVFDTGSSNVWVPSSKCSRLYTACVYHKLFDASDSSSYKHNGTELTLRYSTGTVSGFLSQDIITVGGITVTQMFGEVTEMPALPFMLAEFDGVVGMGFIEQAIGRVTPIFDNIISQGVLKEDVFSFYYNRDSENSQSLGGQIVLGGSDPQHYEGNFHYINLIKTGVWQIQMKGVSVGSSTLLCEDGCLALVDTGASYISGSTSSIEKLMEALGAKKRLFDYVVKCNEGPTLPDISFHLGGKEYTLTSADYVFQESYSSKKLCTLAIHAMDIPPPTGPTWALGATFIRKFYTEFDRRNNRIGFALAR

[2] = target: Pepsin A (Sus scrofa, UniProt P00791); experiment: Concentration required to inhibit the enzyme pepsin
[3] = target: Chymotrypsinogen A (Bos taurus, UniProt P00766); experiment: Concentration required to inhibit the enzyme chymotrypsin

Sequence of Pepsin A (P00791 whole entry): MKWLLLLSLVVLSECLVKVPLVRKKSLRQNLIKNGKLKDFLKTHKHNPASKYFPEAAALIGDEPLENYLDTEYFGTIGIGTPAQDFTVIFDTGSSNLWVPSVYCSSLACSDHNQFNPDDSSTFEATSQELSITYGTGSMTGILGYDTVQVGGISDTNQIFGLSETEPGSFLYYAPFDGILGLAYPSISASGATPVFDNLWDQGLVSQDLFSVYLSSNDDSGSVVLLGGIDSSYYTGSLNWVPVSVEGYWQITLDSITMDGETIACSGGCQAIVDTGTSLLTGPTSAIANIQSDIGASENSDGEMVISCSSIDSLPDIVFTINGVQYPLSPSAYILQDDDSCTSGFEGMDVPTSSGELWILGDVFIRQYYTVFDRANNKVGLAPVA

IC50 [1] [µM]	Ki [2] [µM]	Ki [3] [µM]	SMILES
0.25			CC(C)C[C@H](NC(=O)[C@H](Cc1ccccc1)NC(=O)OC(C)(C)C)C(=O)N[C@@H](CC1CCCCC1)C(=O)C(F)(F)F (Boc-Phe-Leu-[Cha]-CF3)
	40	2.5	CCC[C@H](NC(=O)[C@H](Cc1ccc(OC)cc1)NC(=O)CC(C)C)C(=O)N[C@@H](CC1CCCCC1)C(=O)C(F)(F)CN
25			COc1ccc(C[C@H](NC(=O)CC(C)C)C(=O)CCC(=O)N[C@@H](CC2CCCCC2)C(=O)C(F)(F)CN)cc1
> 1			CCC[C@H](NC(=O)[C@H](Cc1ccc(OC)cc1)NC(=O)CC(C)C)C(=O)N[C@@H](CC1CCCCC1)C(O)C(F)(F)CN (some centres not stated)
40			CCC[C@@H](C(=O)N[C@@H](CC1CCCCC1)C(=O)C(F)(F)CN)N(C)C(=O)[C@H](Cc1ccc(OC)cc1)NC(=O)CC(C)C
27			COc1ccc(C[C@H](NC(=O)CC(C)C)C(=O)N[C@H](C)C(=O)N[C@@H](CC2CCCCC2)C(=O)C(F)(F)CN)cc1
